Holding throughout (assay type): cell-based
Experiment [1] concerns library of all human class I OR. The experiment is described as follows: Screening of the library of all class I OR (n=77, C-terminal domain SEQ ID NO: 741) with carboxylic acids, luciferase induction. The following applies: full library of class I OR. Here is the method: All human class I OR and all key genetic variants of these OR were synthesized with a sequence coding for the identical C-terminal domain […] (SEQ ID NO: 741) in the vector pcDNA3.1(+) to generate a library of all class I OR with an improved C-terminal domain.
Parallel transfection experiments were conducted with all these plasmids (n=77, SEQ ID NO: 760, OR51F1 was excluded due to poor plasmid yield) and cells expressing the different OR were stimulated with one given ligand at a time. In total 10 different carboxylic acids ligands were tested on the full library of class I receptors.

Experiment [2] has as its target T1, OR10J5 (Homo sapiens, UniProt Q8NHC4).
T1 construct: Improved functional expression of modified OR-genes containing the truncated, optimized C-terminus; expressed in transfected cells; host or cells: HEK293T stably expressing human RTP1S(V227I) and RTP2(L220R)
T1 sequence (Q8NHC4 with tags, fused parts or gaps): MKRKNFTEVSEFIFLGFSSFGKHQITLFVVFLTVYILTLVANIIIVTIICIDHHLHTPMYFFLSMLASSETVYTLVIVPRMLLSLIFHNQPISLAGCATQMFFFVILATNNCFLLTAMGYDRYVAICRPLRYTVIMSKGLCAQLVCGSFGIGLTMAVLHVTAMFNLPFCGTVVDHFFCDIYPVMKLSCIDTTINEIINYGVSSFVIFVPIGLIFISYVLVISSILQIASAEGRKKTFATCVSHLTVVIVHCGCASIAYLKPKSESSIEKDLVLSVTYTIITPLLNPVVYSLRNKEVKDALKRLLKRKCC
The conditions noted are these: OR10J5 with SEQ ID NO: 86; relative to positive control 100 μM Mahonial. Here is the method: Activation of OR10J5 with the C-terminal domain of SEQ ID NO: 86 by (S,E)-10-hydroxy-4,8-dimethyldec-4-enal or (R,E)-10-hydroxy-4,8-dimethyldec-4-enal was measured in a dose-response analysis.
Potency of the two tested OR10J5 ligands is expressed as the EC20% value, which is the concentration that leads to a 20% increase of the luciferase activity relative to the positive control (100 μM, Mahonial; (4E)-9-hydroxy-5,9-dimethyl-4-Decenal). […] Because of the difference in EC20%, a much lower concentration of the (S,E)-isomer is needed to activate the receptor compared to the concentration needed of the (R,E)-isomer. […] This example further illustrates the usefulness of the improved assay to determine the most odor-active isomers.

The target in experiment [3] is T2, OR4S2 (Homo sapiens, UniProt Q8NH73, A290K).
T2 construct: Improved functional expression of modified OR-genes containing the truncated, optimized C-terminus; expressed in transfected cells; host or cells: HEK293T stably expressing human RTP1S(V227I) and RTP2(L220R)
T2 sequence (Q8NH73 with tags, fused parts or gaps A290K): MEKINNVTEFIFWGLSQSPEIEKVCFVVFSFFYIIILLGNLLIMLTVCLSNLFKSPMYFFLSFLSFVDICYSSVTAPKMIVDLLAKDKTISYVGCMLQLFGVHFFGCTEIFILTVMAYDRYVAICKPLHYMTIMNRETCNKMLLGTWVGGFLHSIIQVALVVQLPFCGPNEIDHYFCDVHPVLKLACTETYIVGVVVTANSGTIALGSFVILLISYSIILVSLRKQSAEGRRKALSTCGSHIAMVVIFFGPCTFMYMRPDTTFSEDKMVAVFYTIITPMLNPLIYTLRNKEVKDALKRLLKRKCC
The experiment is described as follows: cell-based.

The target of experiment [4] is T3, OR10J1(M51I, I92M) (Homo sapiens, UniProt P30954, I103M/M62I).
T3 construct: expressed in transfected cells; transient transfection of pcDNA3.1(+) OR plasmid
T3 sequence (P30954 with tags, fused parts or gaps M62I/I103M): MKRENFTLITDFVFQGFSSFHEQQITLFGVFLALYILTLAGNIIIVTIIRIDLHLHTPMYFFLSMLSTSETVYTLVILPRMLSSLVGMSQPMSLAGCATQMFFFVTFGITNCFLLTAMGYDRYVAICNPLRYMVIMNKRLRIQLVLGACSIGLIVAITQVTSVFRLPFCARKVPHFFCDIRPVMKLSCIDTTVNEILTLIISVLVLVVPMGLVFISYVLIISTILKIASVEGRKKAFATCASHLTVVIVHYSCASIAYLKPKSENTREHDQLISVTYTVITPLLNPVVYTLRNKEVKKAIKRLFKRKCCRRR
The experiment is described as follows: Dose-response test of single lactones on OR10J1(M51I, I92M). Here is the method: (§1) In a subsequent de-convultion experiment, the single ingredients were tested in a dose-response test on all the identified OR. […] Thus, OR2AP1 and OR2J2 are particularly strongly activated by the long-chain dodecalactone gamma, while OR10A3 is very sensitive to several longer chain lactones. […] Among the five OR, OR10A3 is the most sensitive.

Experiment [5] addresses T4, OR2AP1 (Homo sapiens, UniProt Q8NGE2).
T4 construct: expressed in transfected cells; transient transfection of pcDNA3.1(+) OR plasmid
T4 sequence (Q8NGE2 with tags, fused parts or gaps limits assumed): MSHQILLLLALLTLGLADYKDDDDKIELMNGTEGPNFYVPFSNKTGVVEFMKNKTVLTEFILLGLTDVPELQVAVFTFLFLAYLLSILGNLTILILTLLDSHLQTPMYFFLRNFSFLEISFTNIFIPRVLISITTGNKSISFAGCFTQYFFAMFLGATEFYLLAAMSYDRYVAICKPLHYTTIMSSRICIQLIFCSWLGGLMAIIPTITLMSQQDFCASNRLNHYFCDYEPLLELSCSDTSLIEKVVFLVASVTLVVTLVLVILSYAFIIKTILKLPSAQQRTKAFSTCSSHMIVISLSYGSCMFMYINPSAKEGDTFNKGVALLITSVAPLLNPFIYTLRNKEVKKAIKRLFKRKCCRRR
The experiment is described as follows: Dose-response test of single lactones on OR2AP1. Here is the method:
as §1

For experiment [6], the target named is T5, OR10A3 (Homo sapiens, UniProt P58181).
T5 construct: Class II OR library members with modified C-terminal domains; expressed in transfected cells
T5 sequence (P58181 with tags, fused parts or gaps): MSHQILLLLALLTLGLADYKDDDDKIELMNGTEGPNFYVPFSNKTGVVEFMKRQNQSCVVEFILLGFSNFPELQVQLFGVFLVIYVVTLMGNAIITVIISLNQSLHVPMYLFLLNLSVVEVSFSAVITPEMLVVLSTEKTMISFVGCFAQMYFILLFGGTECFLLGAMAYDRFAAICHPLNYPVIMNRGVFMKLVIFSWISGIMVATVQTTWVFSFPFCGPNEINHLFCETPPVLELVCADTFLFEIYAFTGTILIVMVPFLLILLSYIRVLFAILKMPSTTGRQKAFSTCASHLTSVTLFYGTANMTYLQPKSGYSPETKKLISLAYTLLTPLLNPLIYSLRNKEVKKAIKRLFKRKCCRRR
Put plainly: Dose-response test of single lactones on OR10A3 (luciferase). Here is the method: as §1

Experiment [7] concerns the target T6, OR2J2 (Homo sapiens, UniProt O76002, A146V/A218T/A302I/G300K/H297E/H74Y).
T6 construct: expressed in transfected cells; transient transfection of pcDNA3.1(+) OR plasmid
T6 sequence (O76002 with tags, fused parts or gaps H74Y/A146V/A218T/H297E/G300K/A302I limits assumed): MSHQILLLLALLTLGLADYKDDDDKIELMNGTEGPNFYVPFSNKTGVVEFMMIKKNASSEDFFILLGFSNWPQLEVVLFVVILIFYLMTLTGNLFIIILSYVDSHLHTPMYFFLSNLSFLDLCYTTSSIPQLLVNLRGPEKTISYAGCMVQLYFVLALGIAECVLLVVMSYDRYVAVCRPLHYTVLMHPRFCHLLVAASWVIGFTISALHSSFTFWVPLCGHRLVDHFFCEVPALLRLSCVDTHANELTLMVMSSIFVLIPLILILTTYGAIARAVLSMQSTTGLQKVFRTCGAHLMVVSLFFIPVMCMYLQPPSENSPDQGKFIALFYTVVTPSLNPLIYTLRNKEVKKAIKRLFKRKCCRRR
Put plainly: Dose-response test of single lactones on OR2J2. Here is the method:
as §1

Experiment [8] deals with T7, OR10A6(A117V, V140G, L287P) (Homo sapiens, UniProt Q8NH74, A117V/L287P/V140G).
T7 construct: expressed in transfected cells; transient transfection of pcDNA3.1(+) OR plasmid
T7 sequence (Q8NH74 with tags, fused parts or gaps A117V/V140G/L287P limits assumed): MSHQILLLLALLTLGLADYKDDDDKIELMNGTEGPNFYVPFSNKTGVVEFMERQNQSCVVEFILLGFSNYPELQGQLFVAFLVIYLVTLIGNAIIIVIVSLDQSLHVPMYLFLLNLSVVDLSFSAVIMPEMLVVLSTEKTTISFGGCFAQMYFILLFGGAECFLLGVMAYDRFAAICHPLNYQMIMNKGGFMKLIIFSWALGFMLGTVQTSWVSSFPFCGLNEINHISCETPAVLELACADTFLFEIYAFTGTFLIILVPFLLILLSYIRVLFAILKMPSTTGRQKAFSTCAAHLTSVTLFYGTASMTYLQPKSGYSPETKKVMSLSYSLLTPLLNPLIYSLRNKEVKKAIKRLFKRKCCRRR
Put plainly: Dose-response test of single lactones on OR10A6(A117V, V140G, L287P). Here is the method: as §1

Consider `CCC=C(C)C(=O)O` [2-Methyl-2-pentenoic acid], for which the “Activated OR and OR variants” value in experiment [1] is on record as “No activation observed”.
On to `CCCC(C)=CC(=O)O` [3-Methyl-2-hexenoic acid], for which, in experiment [1], the “Activated OR and OR variants” value was “strong induction of the OR51B2(C120R, L134F, C209S) variant but not of the wild-type variant of OR51B2”.
Still for that read-out and setting: the entry for `CC(C)CC(=O)O` [3-Methylbutanoic acid] is “No activation observed”.
Compound `C/C(=C\CC[C@@H](C)CCO)CCC=O` [(R,E)-10-hydroxy-4,8-dimethyldec-4-enal] gave an EC20% in experiment [2] of 24.4 µM.
On the same count and under the same terms, the figure for `C/C(=C\CC[C@H](C)CCO)CCC=O` [(S,E)-10-hydroxy-4,8-dimethyldec-4-enal] is 10.1 µM.
As for `c1ccc2scnc2c1` [Benzothiazole], the Comments on efficacy in experiment [3] is listed as 2-fold lower. In experiment [3] (changed C-term. vs wild-type), the Fold-improvement potency is on record as 1.3 and the Fold-improvement threshold was 2.4. Further, a half-maximal effect in experiment [3] (wild-type) (EC50) was put at 137 µM.
With `CCCCCCC1CCC(=O)O1` (centres unmarked) [Decalactone gamma], the “EC2 (concentration for 2-fold luciferase induction)” value in experiment [4] turned out to be 3.63 µM; in experiment [5] it was 33.66 µM; in experiment [7], 3.27 µM; in experiment [8], 1.62 µM. The “EC10, concentration for 10-fold OR activation” value in experiment [6] worked out at 0.84 μM.

One may read the EC50 as the concentration that produces a half-maximal response. The low end stands for higher potency in that assay, the high end for lower potency in that assay.

Values taken from patent publication US20260210939A1, “MODIFIED OLFACTORY RECEPTORS” (GIVAUDAN SA, priority 2022, published 2026).
